Results reported in patent US20110110920A1, “METHOD OF TREATING PERIPHERAL ARTERIAL DISEASE” (priority 2008, published 2011).

How the values were obtained:
eNOS mRNA = eNOS mRNA in HCAE cells, RT-PCR and SYBR Green real-time PCR; type: cell-based, human
Method: Human coronary artery endothelial cells (HCAE cells, Lonza, Walkersville, Md.) were cultured in 5% CO2 at 37° C. in endothelial cell growth medium (EGM) supplemented with 2% fetal bovine serum and Single Quot supplements (Clonetics, San Diego, Calif.; containing epidermal growth factor, hydrocortisone, vascular endothelial growth factor, fibroblast growth factor, insulin growth factor, ascorbic acid, heparin, gentamycin, and amphotericin B). Cells were used between passages 4 and 6 for these studies. HCAE cells were plated at a density of 50,000 cells per well in 12-well plates and were grown for 3 days to reach confluency. […] Cells were then incubated in normoxic or 1% hypoxic conditions for the indicated times. […] For RNA extraction, HCAE cells were cultured in 6-well plates.
Total RNA was isolated using an Ambion isolation kit as described by the manufacturer.
RT-PCR for eNOS was performed by Ready-to-Go RT-PCR Beads (Amersham Biosciences) using a two-step protocol. […]
Samples were coded to provide blinded analysis. […] Quantitative PCR amplifications were done using 2 μl of cDNA in a total volume of 25 μl using SYBR green probes in the SYBR Green PCR Master Mix (ABI). […] The reverse-transcribed cDNA sample cycle threshold values were determined from triplicate samples and normalized to the 18S “housekeeping” gene.

arginase 1 = assay: Arginase 1 expression in HCAE cells with or without TNFα, western blot; type: cell-based, human; conditions: TNFα treatment
Method: (§1) Human coronary artery endothelial cells (HCAE cells, Lonza, Walkersville, Md.) were cultured in 5% CO2 at 37° C. in endothelial cell growth medium (EGM) supplemented with 2% fetal bovine serum and Single Quot supplements (Clonetics, San Diego, Calif.; containing epidermal growth factor, hydrocortisone, vascular endothelial growth factor, fibroblast growth factor, insulin growth factor, ascorbic acid, heparin, gentamycin, and amphotericin B). Cells were used between passages 4 and 6 for these studies. HCAE cells were plated at a density of 50,000 cells per well in 12-well plates and were grown for 3 days to reach confluency. […] Cells were then incubated in normoxic or 1% hypoxic conditions for the indicated times.
(§2) The cell lysates were subjected to SDS-PAGE in a 10% polyacrylamide gel and transferred to a nitrocellulose membrane (0.2-μm, Invitrogen). After blocking with 5% milk, the membrane was incubated overnight at 4° C. with primary antibodies against phospho-eNOS (Ser 1177) and eNOS (Cell Signaling Technology, Beverly, Mass.), human type-1 arginase (clone 9C5) (Cell Sciences, Canton, Mass.), or GAPDH (Santa Cruz Biotechnology, Santa Cruz, Calif.). HRP-conjugated anti-mouse or anti-rabbit antibodies (Cell Signaling Technology) were used as secondary antibodies (HRP, horseradish peroxidase). […]

eNOS [1] = assay: eNOS expression and S1177 phosphorylation in HCAE cells, western blot; type: cell-based, human; conditions: 24 h
Method: as §1, §2

[2] = tested on: Human coronary artery endothelial (HCAE) cells; assay: Transmembrane migration of endothelial cells toward VEGF (FluoroBlok inserts); type: cell-based; conditions: hypoxic, VEGF 10 ng/ml as chemoattractant, 22 h
Method: Transmembrane cell migration assays were performed using BD FluoroBlok inserts (BD Bioscience, Bedford, Mass.) as described by the vendor. […] (V) or medium alone (C) was added to the lower chamber of the insert plate as a chemoattractant. Endothelial migration was performed in normoxic or 1% hypoxic conditions. After a 22-hour incubation, cells were labeled post-migration with Calcein AM and measured by detecting the fluorescence of the cells that migrated to the underside of the insert membrane.

[3] = tested on: Human coronary artery endothelial (HCAE) cells; assay: Endothelial cell invasion through Matrigel toward VEGF; type: cell-based; conditions: normoxic or hypoxic, VEGF 10 ng/ml, no TP508
Method: Endothelial cell invasion assays were performed using BD BioCoat™ Angiogenesis System (BD Bioscience, Bedford, Mass.) which utilizes FluoroBlok inserts coated with BD Matrigel Matrix (BD Bioscience, Bedford, Mass.). […] Endothelial cell invasion was performed in normoxic or hypoxic (1% O2) conditions. After 22 hours of incubation, cells were labeled post-invasion with Calcein AM and measured by detecting the fluorescence of the cells that migrated to the underside of insert membrane.

eNOS [4] = assay: VEGF-induced activation of eNOS in HCAE cells, western blot; type: cell-based, human; conditions: normoxic HCAE cells, VEGF 50 ng/ml, 1 minute
Excerpt: The membrane was re-probed with anti-GAPDH (glyceraldehyde-3-phosphate dehydrogenase) antibody to show equal protein loading.

VEGF mRNA = VEGF mRNA expression in HCMVE cells, real-time PCR; type: cell-based, human; conditions: VEGF 10 ng/ml, 24 h
Excerpt: Data from one experiment performed in triplicate are shown in FIG. 11 as mean±SD. *p<0.01 compared to control (C) cells in normoxia. ^#p<0.01 compared to control (C) cells in hypoxia.

[5] = tested on: Human Lung Microvascular Endothelial Cells (HLME); assay: Survival of serum-deprived HLME cells; type: cell-based; conditions: serum-deprivation

Substance	eNOS mRNA expression (RT-PCR) (eNOS mRNA; 6 h stimulation, 25 or 30 cycles, relative to controls)	decrease of eNOS mRNA level (eNOS mRNA; 24 h, real-time PCR) [%]	expression of arginase 1 (ARG1) relative to control cultures (arginase 1)	reduction of eNOS expression relative to normoxic controls (eNOS [1]) [%]	migration of control endothelial cells relative to media control cells [2] [%]	invasion of control endothelial cells through Matrigel toward human VEGF [3]	phosphorylation of eNOS on serine 1177, maximum (eNOS [4]) [fold]	VEGF mRNA in hypoxic cells (VEGF mRNA; hypoxic)	decrease of VEGF mRNA expression compared to control cells (VEGF mRNA; normoxic) [fold]	cell survival, agent alone [5]
TNFα	drastically decreased	~80	significant increase	45	–	–	–	–	–	–
VEGF	–	–	–	–	~150	not stimulated	2	no effect, or decreased	2	increased survival at lower levels
